Measured values published in US10932484B2, “Inhibitory activity of acetogenins against Listeria monocytogenes” (INSTITUTO TECHNOLOGICO Y DE ESTUDIOS SUPERIORES DE MONTERREY, priority 2016, dated 2021).
≈ marks a conversion by molar mass, not a printed value.

Legend:
[1] = tested on: Listeria monocytogenes (ATCC 35152); assay: Disc diffusion assay; type: cell-based; conditions: for Inhibition zones of isolated acetogenins (in words): isolated molecules at 15 μg disc^−1, 37° C., 24 h; for Potency relative to Mirenat® in disc diffusion: 15 μg disc^−1 vs Mirenat® at 15 μg disc^−1 LAE
Procedure: Listeria monocytogenes (ATCC 35152) was acquired from the American Type Culture Collection (Manassas, Va., USA). For experimentation, frozen stocks were first activated in Brain Heart Infusion (BHI) broth (Becton, Dickinson and Co., Franklin Lakes, N.J., USA) for 16-18 h at 37° C. A sub-culture was prepared under the same growth conditions to 3⁄4 log phase (6-7 h). At this stage, cells were adjusted with BHI to an initial optical density (OD) at 600 nm of 0.15, which corresponded to 8×10^6 CFU mL^-1 and served as the inoculum for the following antimicrobial assays. Aliquots (100 μL) of the cell suspension described above were evenly spread with a sterile plastic rod on the surface of agar plates. Sterile filter paper disks (Whatman No. 1, 6 mm) were impregnated with aliquots (5 μL) of the antimicrobial solution (EAE, Avosafe® and isolated acetogenins) freshly prepared at 3000 ppm in 96% food grade ethanol to delivered 15 μg disc^-1 of active compounds. All solutions were sonicated for 5 min (Branson 2510, Branson Ultrasonics, Danbury, Conn., USA) and vortexed for 30 s before dispensing the corresponding volumes. The disks were air-dried for approximately 1 h in a biological safety cabinet before placed into the inoculated plate. Antimicrobials were tested in triplicate, one disk per plate to account for plate variability. Vehicle and positive controls were also incorporated into each plate and contemplated 5 μl of 96% ethanol and […]® at 3000 ppm LAE in sterile deionized water. Each plate contained at most six disks evenly distributed. Plates were incubated for 24 h at 37° C. After, diameters of inhibition zones were measured to the nearest millimeter.

[2] = tested on: Listeria monocytogenes (ATCC 35152); assay: Minimum inhibitory concentration (MIC) and minimum bactericidal concentration (MBC), broth dilution; type: cell-based; conditions: 37° C.; for MBC/MIC ratio: ≤4 bactericidal, >4 bacteriostatic; for MBC / MIC: Listeria monocytogenes, ATCC35152, 24 h
Procedure: Listeria monocytogenes (ATCC 35152) was acquired from the American Type Culture Collection (Manassas, Va., USA). For experimentation, frozen stocks were first activated in Brain Heart Infusion (BHI) broth (Becton, Dickinson and Co., Franklin Lakes, N.J., USA) for 16-18 h at 37° C. A sub-culture was prepared under the same growth conditions to ¾ log phase (6-7 h). At this stage, cells were adjusted with BHI to an initial optical density (OD) at 600 nm of 0.15, which corresponded to 8×10^6 CFU mL^−1 and served as the inoculum for the following antimicrobial assays.
Stock solutions (25000-5000 ppm) of EAE, Avosafe® and isolated molecules were prepared in ≥99.5% food-grade propylene glycol (PG) (Sigma Aldrich, St. Louis, Mo., USA) and stored in brown vials at −80° C. Working solutions in culture media were prepared from room temperature acclimatized stock solutions that were sonicated (5 min) and vortexed (30 s) as described above. Culture medium was adjusted to 4% w/v PG to account for the effect of the vehicle in all concentrations tested and sets of experiments. Prior tests were conducted to confirm that 4% PG had no effect on growth. Serial 2-fold dilutions of samples, in a range of concentrations from 125 to 0.98 ppm, were prepared in sterile 96-well clear polystyrene microplates (Cat. No. 3370, Corning, Corning, N.Y., USA) or disposable test tubes (VWR, Radnor, Pa., USA) to a final volume of 300 μL or 1 mL, respectively. The experimentation scale was determined by the amount of test product available. Each well or tube was inoculated with 10% v/v liquid phase of the cell suspension (OD600 nm 0.15) as previously described. A growth control (no antimicrobial added), an aseptic control (uninoculated), and a positive control (Mirenat®) were also examined. After 24 h at 37° C., the MIC was defined as the lowest concentration at which no visual growth was assessed by turbidity (Levison, M. E., “Pharmacodynamics of Antimicrobial Drugs,” Infect. Dis. Clin. North. Am. 18(3):451-65 (2004), which is hereby incorporated by reference in its entirety). […] Then, the pellet was resuspended in antimicrobial-free medium and incubated for 24 h at 37° C. The MBC was defined as the lowest concentration showing no growth (Levison, M. E., “Pharmacodynamics of Antimicrobial Drugs,” Infect. Dis. Clin. North. Am. 18(3):451-65 (2004), which is hereby incorporated by reference in its entirety). All tests were independently replicated (n=3) and performed with technical triplicates.

[3] = Effect of thermal processing and storage on acetogenins concentration in sausages; type: physicochemical; conditions: sausages with 10,000 ppm Avosafe®, cooking and pasteurization
From the text: Effect of thermal processing and storage on acetogenins concentration. Acetogenins in sausages (Treatment A: un-cooked, day 0 and 90) were extracted and quantified as reported by Salinas-Salazar et al, “Inhibitory Activity of Avocado Seed Fatty Acid Derivatives (Acetogenins) Against Listeria Monocytogenes” J Food Sci 82: 134-44 (2016), which is hereby incorporated by reference in its entirety, with some modifications. Three grams (3 g) of sample were homogenized with acetone (1:5, w/v) using an Ultra-Turrax T25 homogenizer (IKA Works, Willmington, N.C., USA.) at 11000 rpm for 3 min, sonicated for 5 min, and centrifuged at 3600 rpm for 6 min (5° C.). Supernatants were collected and the precipitated material was extracted again two times, as mentioned above. After, supernatants were mixed and the solvent was evaporated at 35° C. using a rotary evaporator (Büchi R-210, Büchi Labortechnik AG, Switzerland) under high vacuum (22 in Hg). Residue was partitioned in 10 mL hexane:methanol (1:1). After 30 s of vortex, phases were separated by centrifugation (4000 rpm, 10 min) and the lower phase (methanol) was recovered and washed two more times with hexane, taken to dryness under nitrogen gas, resuspended in 1 mL isopropanol and passed through a 0.45 μm PTFE filter prior to HPLC injection. Agilent HPLC systems (Santa Clara, Calif., USA) 1260 Infinity series coupled to a G4212B photodiode array detector (PDA) and an evaporative light scattering detector G4218A was used. The PDA detector was set at 220 and 208 nm (Rodríguez-López, “A Targeted Metabolomics Approach to Characterize Acetogenin Profiles in Avocado Fruit (Persea americana Mill.)” RSC Adv 5: 106019-29 (2015), which is hereby incorporated by reference in its entirety).

C. sporogenes = conditions: cited from earlier work
[4] = lactating mice; cited from earlier work
[5] = dose of 100 mg kg^−1 of body weight; cited from earlier work

In the case of `C#CCC/C=C/CCCCCCC[C@H](O)CC(O)COC(C)=O` (stereo in doubt) [AcO-avocadenyne, 1-acetoxy-2,4-dihydroxy-heptadec-12-en-16-yne], the “Antimicrobial activity relative to AcO-avocadene” value ([1]; 15 μg disc^−1, FIG. 4) is reported as 4 times, the MBC/MIC ratio [2] is reported as 2 and the MBC [2] is reported as 31.2 µg/mL (≈ 96.2 µM). The MIC [2] was 15.6 µg/mL (≈ 48.1 µM).
In the case of `C=CCCCCCCCCCCC[C@H](O)C[C@H](O)COC(C)=O` [AcO-avocadene, (2S,4S)-1-acetoxy-2,4-dihydroxy-n-heptadeca-16-ene], the “Inhibition zones of isolated acetogenins (in words)” value (“Inhibition zones” for short) [1] is reported as “least potent” and the “Processing losses compared to unprocessed control (in words)” value [3] is reported as “no statistically significant”.
With `C=CCCCCCCCCCC=CC(O)CC(O)COC(C)=O` (stereo not drawn) [AcO-avocadiene A, 1-Acetoxy-2,4-dihydroxy-heptadeca-5,16-diene] the “Inhibition zones” value [1] was “did not produce inhibition zones” and the “Processing losses compared to unprocessed control (in words)” value [3] was “no statistically significant”.
With `C#CCCCCCCCCCCCC(O)CC(O)COC(C)=O` (stereo not drawn) [AcO-avocadyne, 1-acetoxy-2,4-dihydroxy-heptadec-16-yne] the “Inhibition zones” value [1] was “did not produce inhibition zones”.
In the case of `CCCCC/C=C\C/C=C\CCCCC/C=C/C(=O)C[C@@H](O)COC(C)=O` [Persenone A, (2R,5E,12Z,15Z)-1-acetoxy-2-hydroxy-4-oxoheneicosa-5,12,15-triene], the “Potency relative to Mirenat® in disc diffusion” value [1] is reported as “around 3 fold”, the “Inhibition zones” value [1] is reported as “highest inhibition zones” and the MBC/MIC ratio [2] is reported as 2. The MBC [2] was 15.6 µg/mL (≈ 41.2 µM), the MIC [2] was 7.8 µg/mL (≈ 20.6 µM) and the “Processing losses compared to unprocessed control (in words)” value [3] was “no statistically significant”.
With `CCCCCCCCCCCCC/C=C/C(=O)C[C@@H](O)COC(C)=O` [Persenone B, (5E)-1-acetoxy-2-hydroxy-4-oxononadeca-5-ene] the “Processing losses compared to unprocessed control (in words)” value [3] was “no statistically significant”.
For `CC/C=C/CCCCCCCCC/C=C/C(=O)C[C@@H](O)COC(C)=O` [Persenone C, (2R,5E,16E)-1-acetoxy-2-hydroxy-4-oxononadeca-5,16-diene], the “Potency relative to Mirenat® in disc diffusion” value [1] was “around 3 fold” and the “Inhibition zones” value [1] was “highest inhibition zones”.
In the case of `CCCCC/C=C\C/C=C\CCCCCCCC(=O)C[C@@H](O)COC(C)=O` [Persin, (2R,12Z,15Z)-1-acetoxy-2-hydroxy-4-oxoheneicosa-12,15-diene], the “Antimicrobial activity against C. sporogenes (in words)” value (C. sporogenes) is listed as “minimal”, the Toxic acute doses [4] is listed as 60-100 mg kg^−1 body weight and the “Effect in liver injury (in words)” value [5] is listed as “protective effect”.
